Experimental data taken from patent US8158633B2, “Phenyl-substituted pyrazolopyrimidines” (Boehringer Ingelheim International GmbH, priority 2002, dated 2012).

Legend:
[1] = target: T1, PDE9A (Homo sapiens, UniProt O76083); assay: PDE inhibition: recombinant PDE9A, [3H]cGMP scintillation proximity assay; assay type: biochemical; design: made in house; host or cells: Sf9 cells, pFASTBAC baculovirus expression system; details: recombinant PDE9A expressed in Sf9 cells; read-out: IC50 (PDE9A-inhibiting effect)
Source text: Recombinant PDE1C (GenBank/EMBL Accession Number: NM_005020, Loughney et al. J. Biol. Chem. 1996 271, 796-806), PDE2A (GenBank/EMBL Accession Number: NM_002599, Rosman et al. Gene 1997 191, 89-95), PDE3B (GenBank/EMBL Accession Number: NM_000922, Miki et al. Genomics 1996, 36, 476-485), PDE4B (GenBank/EMBL Accession Number: NM_002600, Obernolte et al. Gene. 1993, 129, 239-247), PDE5A (GenBank/EMBL Accession Number: NM_001083, Loughney et al. Gene 1998, 216, 139-147), PDE7B (GenBank/EMBL Accession Number: NM_018945, Hetman et al. Proc. Natl. Acad. Sci. U.S.A. 2000, 97, 472-476), PDE8A (GenBank/EMBL Accession Number: AF—056490, Fisher et al. Biochem. Biophys. Res. Commun. 1998 246, 570-577), PDE9A (Fisher et al., J. Biol. Chem, 1998, 273 (25): 15559-15564), PDE10A (GenBank/EMBL Accession Number: NM_06661, Fujishige et al. J Biol Chem. 1999, 274, 18438-45), PDE11A (GenBank/EMBL Accession Number: NM_016953, Fawcett et al. Proc. Natl. Acad. Sci. 2000, 97, 3702-3707) were expressed in Sf9 cells with the aid of the pFASTBAC baculovirus expression system (GibcoBRL).
The test substances are dissolved in 100% DMSO and serially diluted to determine their in vitro effect on PDE 9A. Typically, serial dilutions from 200 μM to 1.6 μM are prepared (resulting final concentrations in the assay: 4 μM to 0.032 μM). 2 μL portions of the diluted substance solutions are introduced into the wells of microtiter plates (Isoplate; Wallac Inc., Atlanta, Ga.). Then 50 μL of a dilution of the PDE9A preparation described above are added. The dilution of the PDE9A preparation is chosen so that less than 70% of the substrate is converted during the subsequent incubation (typical dilution: 1:10000; dilution buffer: 50 mM Tris/HCl pH 7.5, 8.3 mM MgCl2, 1.7 mM EDTA, 0.2% BSA). The substrate, [8-^3H] guanosine 3′,5′-cyclic phosphate (1 μCi/μL; Amersham Pharmacia Biotech., Piscataway, N.J.) is diluted 1:2000 with assay buffer (50 mM Tris/HCl pH 7.5, 8.3 mM MgCl2, 1.7 mM EDTA) to a concentration of 0.0005 μCi/μL. The enzyme reaction is finally started by adding 50 μL (0.025 μCi) of the diluted substrate. The assay mixtures are incubated at room temperature for 60 min and the reaction is stopped by adding 25 μl of a PDE9A inhibitor (e.g. the inhibitor from preparation example 1, final concentration 10 μM) dissolved in assay buffer. Immediately thereafter, 25 μL of a suspension containing 18 mg/mL Yttrium Scintillation Proximity Beads (Amersham Pharmacia Biotech., Piscataway, N.J.) are added. The microtiter plates are sealed with a film and left to stand at room temperature for 60 min. The plates are then measured for 30 s per well in a Microbeta scintillation counter (Wallac Inc., Atlanta, Ga.). IC50 values are determined from the graphical plot of the substance concentration versus the percentage inhibition.

[2] = target: T1, PDE9A; details: isolated enzyme, concentrations of up to 100 μM; cited from earlier work
[3] = target: T2, Murine PDE9A (Mus musculus, UniProt O70628); details: concentrations below 200 μM; cited from earlier work
T2 sequence (O70628 1-534): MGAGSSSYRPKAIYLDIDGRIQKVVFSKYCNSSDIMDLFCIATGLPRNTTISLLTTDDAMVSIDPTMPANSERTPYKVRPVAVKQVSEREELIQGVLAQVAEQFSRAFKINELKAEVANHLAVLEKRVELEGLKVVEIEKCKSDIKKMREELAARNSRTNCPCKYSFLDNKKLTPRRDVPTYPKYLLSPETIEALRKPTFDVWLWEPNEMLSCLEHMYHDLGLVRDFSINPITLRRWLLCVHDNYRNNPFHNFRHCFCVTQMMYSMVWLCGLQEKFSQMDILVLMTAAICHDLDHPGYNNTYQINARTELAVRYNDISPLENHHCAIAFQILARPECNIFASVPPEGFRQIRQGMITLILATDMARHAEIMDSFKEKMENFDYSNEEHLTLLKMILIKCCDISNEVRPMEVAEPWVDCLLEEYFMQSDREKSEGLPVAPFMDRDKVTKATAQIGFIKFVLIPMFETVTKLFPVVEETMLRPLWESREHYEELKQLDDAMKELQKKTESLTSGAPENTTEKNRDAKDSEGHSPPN

T1 sequence (O76083 whole entry): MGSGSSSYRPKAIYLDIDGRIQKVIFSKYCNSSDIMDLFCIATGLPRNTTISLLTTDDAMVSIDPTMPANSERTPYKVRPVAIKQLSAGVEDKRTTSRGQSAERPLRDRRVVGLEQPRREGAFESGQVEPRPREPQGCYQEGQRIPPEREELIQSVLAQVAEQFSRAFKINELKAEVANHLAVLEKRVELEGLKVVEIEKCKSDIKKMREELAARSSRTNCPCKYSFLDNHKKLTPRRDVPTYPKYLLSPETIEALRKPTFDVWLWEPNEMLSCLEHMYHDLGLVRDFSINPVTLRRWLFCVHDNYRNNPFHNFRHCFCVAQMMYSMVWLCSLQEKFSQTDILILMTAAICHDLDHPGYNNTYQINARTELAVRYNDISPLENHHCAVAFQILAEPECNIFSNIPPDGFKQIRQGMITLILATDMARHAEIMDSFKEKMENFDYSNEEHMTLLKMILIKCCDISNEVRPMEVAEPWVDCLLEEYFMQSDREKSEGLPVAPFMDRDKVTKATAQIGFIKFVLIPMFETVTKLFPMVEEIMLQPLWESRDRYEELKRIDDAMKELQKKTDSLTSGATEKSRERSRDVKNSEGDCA

Q: Which results are given for `O=c1[nH]c(Cc2cccc(Cl)c2)nc2c1cnn2C1CCCC1` [Example 1, 6-(3-Chlorobenzyl)-1-cyclopentyl-1,5-dihydro-4H-pyrazolo[3,4-d]pyrimidin-4-one]?
A: IC50 [1]: 20 nM; melting point: 159 °C

Q: Which IC50 [1] does the source give for `O=c1[nH]c(Cc2ccccc2F)nc2c1cnn2C1CCCC1` [Example 2, 6-(2-Fluorobenzyl)-1-cyclopentyl-1,5-dihydro-4H-pyrazolo[3,4-d]pyrimidin-4-one] here?
A: 30 nM

Q: And the melting point?
A: 180 °C

Q: For `O=c1[nH]c(Cc2cccc(Br)c2)nc2c1cnn2C1CCCC1` [Example 3, 6-(3-Bromobenzyl)-1-cyclopentyl-1,5-dihydro-4H-pyrazolo[3,4-d]pyrimidin-4-one], which melting point is on record?
A: 159 °C

Q: What does the source list for `O=c1[nH]c(Cc2ccc(Cl)c(Cl)c2)nc2c1cnn2C1CCCC1` [Example 4, 6-(3,4-Dichlorobenzyl)-1-cyclopentyl-1,5-dihydro-4H-pyrazolo[3,4-d]pyrimidin-4-one]?
A: IC50 [1]: 30 nM; melting point: 198 °C

Q: With `O=c1[nH]c(Cc2cc(Cl)cc(Cl)c2)nc2c1cnn2C1CCCC1` [Example 5, 6-(3,5-Dichlorobenzyl)-1-cyclopentyl-1,5-dihydro-4H-pyrazolo[3,4-d]pyrimidin-4-one] as the compound, how does the melting point read?
A: 177 °C

Q: For `O=c1[nH]c(Cc2cccc(Cl)c2Cl)nc2c1cnn2C1CCCC1` [Example 6, 6-(2,3-Dichlorobenzyl)-1-cyclopentyl-1,5-dihydro-4H-pyrazolo[3,4-d]pyrimidin-4-one], which melting point is on record?
A: 181 °C

Q: With `CCC(CC)n1ncc2c(=O)[nH]c(Cc3cccc(Cl)c3)nc21` [Example 7, 6-(3-Chlorobenzyl)-1-(1-ethylpropyl)-1,5-dihydro-4H-pyrazolo[3,4-d]pyrimidin-4-one] as the compound, how does the melting point read?
A: 138 °C

Q: With `Cc1cccc(Cc2nc3c(cnn3C3CCCC3)c(=O)[nH]2)c1` [Example 8, 6-(3-Methylbenzyl)-1-cyclopentyl-1,5-dihydro-4H-pyrazolo[3,4-d]pyrimidin-4-one] as the compound, how does the melting point read?
A: 152 °C

Q: Which melting point does the source give for `CCC(CC)n1ncc2c(=O)[nH]c(Cc3cc(Cl)ccc3Cl)nc21` [Example 9, 6-(2,5-Dichlorobenzyl)-1-(1-ethylpropyl)-1,5-dihydro-4H-pyrazolo[3,4-d]pyrimidin-4-one] here?
A: 134 °C

Q: For `CCC(CC)n1ncc2c(=O)[nH]c(Cc3cccc(C)c3)nc21` [Example 10, 6-(3-Methylbenzyl)-1-(1-ethylpropyl)-1,5-dihydro-4H-pyrazolo[3,4-d]pyrimidin-4-one], which IC50 [1] is on record?
A: 64 nM

Q: What about the melting point of the same compound?
A: 128 °C

Q: For `CCC(CC)n1ncc2c(=O)[nH]c(Cc3cccc(C(F)(F)F)c3)nc21` [Example 11, 1-(1-Ethylpropyl)-6-[3-(trifluoromethyl)benzyl]-1,5-dihydro-4H-pyrazolo[3,4-d]-pyrimidin-4-one], which melting point is on record?
A: 120 °C

Q: What does the source list for `S=c1[nH]c(Cc2cccc(Cl)c2)nc2c1cnn2C1CCCC1` [Example 13, 6-(3-Chlorobenzyl)-1-cyclopentyl-1,5-dihydro-4H-pyrazolo[3,4-d]pyrimidine-4-thione]?
A: IC50 [1]: 30 nM; melting point: 154 °C

Q: With `O=c1[nH]c(Cc2ccccc2OC(F)(F)F)nc2c1cnn2C1CCCC1` [Example 14, 1-Cyclopentyl-6-[2-(trifluoromethoxy)benzyl]-1,5-dihydro-4H-pyrazolo[3,4-d]-pyrimidin-4-one] as the compound, how does the melting point read?
A: 161 °C

Q: With `CC(C)Cn1c(=O)n(C)c(=O)c2[nH]cnc21` [IBMX] as the compound, how does the “inhibition of human PDE9A” value [2] read?
A: no inhibition

Q: And the “inhibition of murine PDE9A” value [3]?
A: not inhibited

Q: With `CC(=O)Nc1ccc(-c2c[nH]c(=O)cn2)cc1` [SKF94120] as the compound, how does the “inhibition of human PDE9A” value [2] read?
A: no inhibition

Q: Which “inhibition of human PDE9A” value [2] does the source give for `OCCN(CCO)c1nc(N2CCCCC2)c2nc(N(CCO)CCO)nc(N3CCCCC3)c2n1` [dipyridamole] here?
A: no inhibition

Q: For `COc1ccc(C2CNC(=O)C2)cc1OC1CCCC1` (stereo not drawn) [rolipram], which “inhibition of human PDE9A” value [2] is on record?
A: no inhibition

Q: For `CCOC(=O)C1=C[C@]2(CC)CCCN3CCc4c(n1c1ccccc41)[C@@H]32` [vinpocetine], which “inhibition of human PDE9A” value [2] is on record?
A: no inhibition
